Paper PMC8991007, “Benzylic Dehydroxylation of Echinocandin Antifungal Drugs Restores Efficacy against Resistance Conferred by Mutated Glucan Synthase” (Journal of the American Chemical Society, 2022)
*1 amine or outer side, *2 acyl side, *3 side chain or, on linkers, in order; H or OH if unused. Where a SMILES comes first, the peptide text is derived from it. Bridges are numbered along the chain shown (N, C = ends). [ ]: non-standard residue; d: D form. The star is where a group is joined. Orn(4R-OH,5R-OCH2CH2NMe3+) = C[N+](C)(C)CCO[C@@H](N[*:3])[C@H](O)C[C@H](N[*:1])C(=O)[*:2]; pTerphenylCO(4''-OnC5H11) = CCCCCOc1ccc(-c2ccc(-c3ccc(C(=O)*)cc3)cc2)cc1; hTyr(3S-OH,4S-OH) = N[C@H](C(=O)O)[C@H](O)[C@@H](O)c1ccc(O)cc1; Pro(3S-OH,4S-Me) = C[C@H]1CN[C@H](C(=O)O)[C@H]1O; Hyp = O=C(O)[C@@H]1C[C@@H](O)CN1

Legend:
SF-295 = assay: cells; format: cell-based; details: Homo sapiens; SF-295 expressing GFP, 24 h, mean ± SD; read-out: IC50 (cell viability)
Method: (§1) In this analysis, we used HCT-116, a human colorectal carcinoma cell line; UACC-62, a human melanoma cell line; Hs 578T, a human mammary gland carcinoma cell line, and SF-295, a human glioblastoma cell line. […] The highest concentration of the echinocandins used for the cell viability tests was determined based on the reported maximal plasma concentrations (Cmax) of ANF and RZF measured in humans. A Cmax of approximately 7 μM was measured during a pharmacokinetic study of ANF in patients with candidemia or invasive candidiasis who were treated with a 200 mg loading dose on day 1, followed by a daily 100 mg maintenance dose.[64]
(§2) Human cell lines HCT-116, UACC-62, Hs 578T, and SF-295 were obtained from the Life Sciences Core Facilities of the Nancy & Stephen Grand Israel National Center for Personalized Medicine. Cell lines were grown in an RPMI medium (Gibco, cat. no. 21875-034) supplemented with 10% fetal calf serum (Biological Industries, cat. no. 04-007-1A), Pen/Strep (Biological Industries, cat. no. 03-031-1B), and glutamine (Biological Industries, cat. no. 03-020-1B). GFP was introduced into cells using TALENS according to a previously reported protocol.[73] GFP cells were selected by FACS and propagated.
(§3) Assay-ready plates were designed using in-house software (CHEMPION, INCPM software development team) and prepared in 384-well Greiner plates (cat. no. 781091) using an Echo 555 Acoustic Liquid Handler (Labcyte). The final DMSO concentration in all samples was 0.4%. Prior to the experiment, cells were trypsinized and counted using a Countess cytometer. Cells were then diluted to 40,000 cells/mL in a fresh medium. Cells (50 μL/well; 2000 cells/well) were then dispensed with a Thermo Combi dispenser into plates containing predispensed compounds. After 30 min at room temperature to ensure uniform adherence of cells, the plates were moved to an automated incubator (Liconic STX44) and incubated at 37 °C. An automated confocal microscope with a 4× S Fluor lens (Molecular Devices ImageExpress) was used to acquire images of GFP-expressing cells after 24 h of incubation. Images were then analyzed using MetaExpress with a custom protocol (Custom Module Editor), and data were annotated and normalized using Genedata Screener software. Final normalized data were then loaded into CDD Vault software for comparative data visualization.

HCT-116 = assay: cells; format: cell-based; details: Homo sapiens; HCT-116 expressing GFP, 24 h, mean ± SD; read-out: IC50 (cell viability)
Method: as §1, §2, §3

UACC-62 = assay: cells; format: cell-based; details: Homo sapiens; UACC-62 expressing GFP, 24 h, mean ± SD; read-out: IC50 (cell viability)
Method: as §1, §2, §3

Hs 578T = assay: Phenotypic viability assay of GFP reporter cell line; format: cell-based; details: Homo sapiens; Hs 578T expressing GFP, 24 h, mean ± SD
Method: as §1, §2, §3

C. albicans = assay: Minimum inhibitory concentration broth double-dilution assay; format: cell-based, Candida albicans; details: 24 h, 30 °C
Method: (§4) The antifungal activities of compounds 1 and 2 were evaluated against a panel of 50 strains of C. albicans and C. glabrata (Table S4), including echinocandin-resistant strains that were constructed by introducing mutations within and near the defined hotspots in the FKS1 and/or FKS2 genes.[27] To evaluate antifungal activity, we determined MIC values. The MIC was defined as the lowest drug concentration that led to turbidity (measured at 600 nm) of less than or equal to 35% of that of the untreated culture. As controls, we tested CSF, MCF, ANF, and RZF.
(§5) All of the tested compounds were dissolved in anhydrous DMSO to a concentration of 5 mg/mL. Candida strains were streaked from a glycerol stock onto YPAD agar plates and grown for 24 h at 30 °C. Colonies were suspended in 1 mL of PBS and diluted to an O.D. of 0.01 at 600 nm with YPAD broth and added into flat-bottom 96-well microplates (Corning) containing a gradient of twofold dilutions per tested compound with concentrations ranging from 64 to 0.0009 μg/mL. Control wells with no drug and blank wells without yeast cells containing YPAD only were also prepared. […] Each concentration was tested in triplicate, and results were confirmed by at least two independent sets of experiments.

C. glabrata = assay: as above; format: cell-based, Candida glabrata; details: 24 h, 30 °C
Method: as §4, §5

Structure (SMILES): CCCCCOc1ccc(-c2ccc(-c3ccc(C(=O)N[C@H]4C[C@@H](O)[C@@H](OCC[N+](C)(C)C)NC(=O)[C@@H]5[C@@H](O)[C@@H](C)CN5C(=O)[C@H]([C@@H](C)O)NC(=O)[C@H]([C@H](O)[C@@H](O)c5ccc(O)cc5)NC(=O)[C@@H]5C[C@@H](O)CN5C(=O)[C@H]([C@@H](C)O)NC4=O)cc3)cc2)cc1 [RZF, rezafungin] ({pTerphenylCO(4''-OnC5H11)}-[Orn(4R-OH,5R-OCH2CH2NMe3+)]T[Hyp][hTyr(3S-OH,4S-OH)]T[Pro(3S-OH,4S-Me)]; lactam 1-C)
- IC50 (SF-295): > 40 µM
- IC50 (HCT-116): > 40 µM
- IC50 (UACC-62): > 40 µM
- IC50 (Hs 578T): > 40 µM
- MIC (C. albicans; #1 C. albicans Sc5314): 0.015 µg/mL
- MIC (C. albicans; #2 C. albicans DPL1015 (DP-A15)): 0.25 µg/mL
- MIC (C. albicans; #3 C. albicans DPL1016 (DP-A15-10)): 4 µg/mL
- MIC (C. albicans; #4 C. albicans T-2068 (DP-C42)): 2 µg/mL
- MIC (C. albicans; #5 C. albicans T-2069 (DP-85)): 8 µg/mL
- MIC (C. albicans; #6 C. albicans (DP-89)): 8 µg/mL
- MIC (C. albicans; #7 C. albicans T-2076 (DP-194)): 1 µg/mL
- MIC (C. albicans; #8 C. albicans T-2077 (DP-205)): 1 µg/mL
- MIC (C. glabrata; #9 C. glabrata EF1620): 0.015 µg/mL
- MIC (C. glabrata; #10 C. glabrata TGL00277): 64 µg/mL
- MIC (C. glabrata; #11 C. glabrata TGL00275): 16 µg/mL
- MIC (C. glabrata; #12 C. glabrata CST78): 0.008 µg/mL
- MIC (C. glabrata; #13 C. glabrata TGL00265): 16 µg/mL
- MIC (C. glabrata; #14 C. glabrata TGL00264): 32 µg/mL
- MIC (C. glabrata; #15 C. glabrata TGL00263): 32 µg/mL
- MIC (C. glabrata; #16 C. glabrata TGL00065): > 64 µg/mL
- MIC (C. glabrata; #17 C. glabrata CST34): 0.008 µg/mL
- MIC (C. glabrata; #18 C. glabrata TGL00258): > 64 µg/mL
- MIC (C. glabrata; #19 C. glabrata TGL00256): 4 µg/mL
- MIC (C. glabrata; #20 C. glabrata TGL00107): > 64 µg/mL
- MIC (C. glabrata; #21 C. glabrata TGL00056): > 64 µg/mL
- MIC (C. glabrata; #22 C. glabrata M12): 0.008 µg/mL
- MIC (C. glabrata; #23 C. glabrata TGL00270): > 64 µg/mL
- MIC (C. glabrata; #24 C. glabrata TGL00269): 1 µg/mL
- MIC (C. glabrata; #25 C. glabrata TGL00268): > 64 µg/mL
- MIC (C. glabrata; #26 C. glabrata TGL00268): > 64 µg/mL
- MIC (C. glabrata; #27 C. glabrata EB0911): 0.015 µg/mL
- MIC (C. glabrata; #28 C. glabrata TGL00261): 16 µg/mL
- MIC (C. glabrata; #29 C. glabrata TGL00109): 64 µg/mL
- MIC (C. glabrata; #30 C. glabrata TGL00259): > 64 µg/mL
